Measurements published in patent publication US10959966B2, “Compositions and methods for modulating HEXM1 expression” (CASE WESTERN RESERVE UNIVERSITY, priority 2014, dated 2021).

Assays:
Format in all cases: cell-based
[1] = system: p21 expression in prostate cancer LNCaP cells; assay: p21 expression by western blot, LNCaP cells; conditions: 5 mM HMBA or 50 μM 4a1, 18 hours
Procedure: FIGS. 7(A-B) illustrate Western blots showing (A) MCF7 (control siRNA or HEXIM1 siRNA) and (B) LNCaP (control shRNA or HEXIM1 shRNA) cells treated with vehicle (DMSO), 5 mM HMBA, or 50 μM 4a1 for 18 hours.
Cell lysates were analyzed by western blot as previously described. Anti-HEXIM1 was generated in the Montano laboratory. Primary antibodies against p21 (C-19; cat# sc-397), cyclin D1 (HD11; cat# sc-246) and myc (9E10; cat# sc-40) were obtained from Santa Cruz Biotechnology. Anti-GAPDH was obtained from Millipore. Anti-HIF-1α was obtained from Oxy-cell, Bioresearch).
HMBA was investigated in a Phase II clinical trial due to its potent anti-cancer and cell differentiation activities. Moreover, the roles of HMBA, and potentially 4a1, as differentiating factors are advantageous for their therapeutic use when compared to cytotoxic agents. […] We also examined the ability of 4a1 to induce differentiation and the relative role of HEXIM1.

[2] = system: HEXIM1 expression in breast cancer MDA-MB-231 cells; assay: HEXIM1 expression in MDA-MB-231 cells
Procedure: FIGS. 5(A-C) illustrate (A) the structure of HMBA analog, 4a1, (B) a graph showing HEXIM1 protein expression of breast cancer MCF7 cells treated with vehicle, HMBA, or 4a1 for 18 h, and (C) Western blot analyses of HEXIM1 targets relative to the loading control (GAPDH) of the treated cells.
MCF7, MDA-MB-231, and LNCaP cells were obtained from the American Tissue Culture Collection, and were maintained as previously described. Construction of expression vectors for control miRNA or HEXIM1 miRNAs were described previously. MCF7 or LNCaP cells were transfected with expression vectors containing either the HEXIM1 miRNA insert or a control miRNA insert as previously described. Following blasticidin selection, cells expressing the highest level of GFP were flow-sorted and expanded. MDA-MB-231 cells were transfected with control or expression vector for Flag-tagged HEXIM1 as previously described. The tamoxifen resistant cells line (TOTR) was generated by serial passage of parental MCF7 cells in growth media supplemented with 1 uM trans-hydroxytamoxifen.
Cell lysates were analyzed by western blot as previously described. Anti-HEXIM1 was generated in the Montano laboratory. Primary antibodies against p21 (C-19; cat# sc-397), cyclin D1 (HD11; cat# sc-246) and myc (9E10; cat# sc-40) were obtained from Santa Cruz Biotechnology. Anti-GAPDH was obtained from Millipore. […]

[3] = system: tamoxifen resistant breast cancer line (MCF7/TOTR); assay: MTT proliferation assay, sensitivity to trans-hydroxytamoxifen; conditions: 7 days, 5 mM HMBA or 50 μM 4a1
Procedure: FIGS. 9(A-B) illustrate a Western blot and plots showing HEXIM1 expression in MCF7 and MCF7(TOTR) cells in the presence of vehicle (DMSO), 5 mM HMBA or 50 μM 4a1.
MCF7, MDA-MB-231, and LNCaP cells were obtained from the American Tissue Culture Collection, and were maintained as previously described. Construction of expression vectors for control miRNA or HEXIM1 miRNAs were described previously. MCF7 or LNCaP cells were transfected with expression vectors containing either the HEXIM1 miRNA insert or a control miRNA insert as previously described. Following blasticidin selection, cells expressing the highest level of GFP were flow-sorted and expanded. […]
MCF7 cells were plated onto 96 well plates and treated with 17β-estradiol±trans-hydroxytamoxifen in the presence of DMSO (vehicle), HMBA or 4a1 for 7 days. Cell proliferation was assessed using the MTT based Cell Growth Determination Kit from Sigma-Aldrich according to the manufacturer's protocol.
We have reported that HEXIM1 is required for the ability of antiestrogens to inhibit the activity of the Estrogen Receptor, that loss of HEXIM1 results in agonistic activity of tamoxifen, and that recurrence after tamoxifen therapy can be correlated with loss of HEXIM1 expression in human breast tissue samples. Thus we determined if HMBA and 4a1 can enhance sensitivity to tamoxifen of a tamoxifen resistant breast cancer line (MCF7/TOTR). […]

COc1ccc(CC(=O)NCCCCCCNC(C)=O)cc1 [Compound 4a1]
p21 expression [1]: induction of p21 expression
Potency of HEXIM1 induction compared to HMBA [2]: increased potency
Sensitivity of TOTR cells to trans-hydroxytamoxifen [3]: enhanced the sensitivity
